From paper PMC12460146, “Impact of metabolic enzyme activity variability on dabrafenib disposition” (Frontiers in Pharmacology, 2025)
Counter-ions that a name gives are not always drawn.

Assays:
[1] = system: rat liver microsomes (RLM); test: Drug interaction screening of 48 drugs on dabrafenib metabolism in RLM; assay type: in vitro ADME
Description: The 200 µL incubation system contained 0.1 M Tris-HCl (pH = 7.6), 0.5 mg/mL RLM or HLM, 1 mM NADPH, and dabrafenib. After pre-incubation (37 °C, 5 min), reactions were initiated by adding 1 mM NADPH and terminated after 40 min with 300 µL ice-cold acetonitrile. Carbamazepine (100 ng/mL) was added as the IS. Samples were vortex-mixed (2 min), centrifuged (17,000 × g, 10 min, 4 °C), and supernatants analyzed by UPLC-MS/MS. Hydroxy-dabrafenib concentrations were quantified via UPLC-MS/MS. Reaction velocity (V) was calculated as hydroxy-dabrafenib formation rate (pmoL/min/µg protein).
For drug interaction screening, inhibitors (100 µM final concentration) were screened in the standard incubation system.
The concentrations of dabrafenib and hydroxy-dabrafenib were quantified by UPLC-MS/MS. Chromatographic separation was performed on a Waters Acquity UPLC BEH C18 column (2.1 mm × 50 mm, 1.7 µm particle size) maintained at 40 °C. […] Total run time was 2 min. Detection employed a Waters Xevo TQS triple quadrupole mass spectrometer (Milford, MA, United States) operated in positive-ion multiple reaction monitoring mode.

[2] = parameters: method as in Puszkiel et al., 2019; Balakirouchenane et al., 2021; conditions: ref Puszkiel et al., 2019; Balakirouchenane et al., 2021; cited from earlier work
[3] = RLM, inhibitor 100 µM, dabrafenib at RLM Km concentration, hydroxy-dabrafenib formation
[4] = RLM, inhibitor 100 µM, dabrafenib at RLM Km concentration

Compound | Relative activity (% of control) [1, 3] | further results
CC(=O)Nc1ccc(O)cc1 [Acetaminophen] | 90.08% ± 0.04 | –
COc1ccc2cccc(CCNC(C)=O)c2c1 [Agomelatine] | 36.20% ± 0.08 | –
CN(C)CCC=C1c2ccccc2CCc2ccccc21 [Amitriptyline] | 38.88% ± 0.04 | –
O=c1ccc2ccc(OCCCCN3CCN(c4cccc5sccc45)CC3)cc2[nH]1 [Brexpiprazole] | 29.48% ± 0.05 | inhibition of dabrafenib metabolism [1, 4]: > 70%
CC(NC(C)(C)C)C(=O)c1cccc(Cl)c1 (centres unmarked) [Bupropion] | 30.23% ± 0.06 | –
Cc1ccc(-c2cc(C(F)(F)F)nn2-c2ccc(S(N)(=O)=O)cc2)cc1 [Celecoxib] | 33.72% ± 0.13 | –
CN/C(=N/CCSCc1nc[nH]c1C)NC#N [Cimetidine] | 84.61% ± 0.03 | –
CN(C)CCCC1(c2ccc(F)cc2)OCc2cc(C#N)ccc21 (centres unmarked) [Citalopram] | 59.29% ± 0.07 | –
CN(C)CCCN1c2ccccc2CCc2ccc(Cl)cc21 [Clomipramine] | 54.39% ± 0.08 | –
C[C@@H]1C[C@H]2[C@@H]3CCC4=CC(=O)C=C[C@]4(C)[C@@]3(F)[C@@H](O)C[C@]2(C)[C@@]1(O)C(=O)CO [Dexamethasone] | 59.84% ± 0.07 | –
COc1ccc2c(c1)[C@]13CCCC[C@@H]1[C@H](C2)N(C)CC3 [Dextromethorphan hydrobromide] | 79.28% ± 0.03 | –
O=C(O)Cc1ccccc1Nc1c(Cl)cccc1Cl [Diclofenac sodium] | 69.82% ± 0.04 | –
CN(C)CCOC(c1ccccc1)c1ccccc1 [Diphenhydramine hydrochloride] | 90.45% ± 0.11 | –
CCCCc1oc2ccc(NS(C)(=O)=O)cc2c1C(=O)c1ccc(OCCCN(CCCC)CCCC)cc1 [Dronedarone hydrochloride] | 20.07% ± 0.02 | inhibition of dabrafenib metabolism [1, 4]: > 70%
CNCC[C@H](Oc1cccc2ccccc12)c1cccs1 [Duloxetine] | – | Relative activity (% of control) ([1]; 100 µM): 40.82% ± 0.01
CNCCC(Oc1ccc(C(F)(F)F)cc1)c1ccccc1 (centres unmarked) [Fluoxetine] | 18.63% ±0.04 | inhibition of dabrafenib metabolism [1, 4]: > 70%
CC(C(=O)O)c1ccc(-c2ccccc2)c(F)c1 (centres unmarked) [Flurbiprofen] | 59.91% ± 0.03 | –
CCC1=C(C)CN(C(=O)NCCc2ccc(S(=O)(=O)NC(=O)N[C@H]3CC[C@H](C)CC3)cc2)C1=O [Glimepiride] | 100.17% ± 0.01 | –
Cc1cnc(C(=O)NCCc2ccc(S(=O)(=O)NC(=O)NC3CCCCC3)cc2)cn1 [Glipizide] | 106.96% ± 0.06 | –
COc1ccc(Cl)cc1C(=O)NCCc1ccc(S(=O)(=O)NC(=O)NC2CCCCC2)cc1 [Glybenzcyclamide] | 78.13% ± 0.03 | –
C[C@]12CCC(=O)C=C1CC[C@@H]1[C@@H]2[C@@H](O)C[C@@]2(C)[C@H]1CC[C@]2(O)C(=O)CO [Hydrocortisone] | 70.48% ± 0.08 | –
COc1ccc2c(c1)c(CC(=O)O)c(C)n2C(=O)c1ccc(Cl)cc1 [Indomethacin] | 60.51% ± 0.004 | –

Compound | Relative activity (% of control) [1, 3] | further results
Cc1c(OCC(F)(F)F)ccnc1C[S+]([O-])c1nc2ccccc2[nH]1 (centres unmarked) [Lansoprazole] | 27.68% ± 0.01 | inhibition of dabrafenib metabolism [1, 4]: > 70%
CN1C(C(=O)Nc2ccccn2)=C(O)c2sc(Cl)cc2S1(=O)=O [Lornoxicam] | 65.67% ± 0.04 | –
CC(C(=O)O)c1ccc(CC2CCCC2=O)cc1 (centres unmarked) [Loxoprofen] | 57.60% ± 0.04 | –
Cc1cnc(NC(=O)C2=C(O)c3ccccc3S(=O)(=O)N2C)s1 [Meloxicam sodium] | 61.62% ± 0.06 | –
CN(C)C(=N)N=C(N)N [Metformin hydrochloride] | 109.07% ± 0.01 | –
COCCc1ccc(OCC(O)CNC(C)C)cc1 (centres unmarked) [Metoprolol Tartrate] | 59.44% ± 0.08 | –
CN1CCN2c3ncccc3Cc3ccccc3C2C1 (centres unmarked) [Mirtazapine] | 50.53% ±0.001 | –
CC(C)[C@H]1CC[C@H](C(=O)N[C@H](Cc2ccccc2)C(=O)O)CC1 [Nateglinide] | 108.55% ± 0.06 | –
CN1CCOC(c2ccccc2)c2ccccc2C1 (centres unmarked) [Nefopam hydrochloride] | 52.87% ± 0.15 | –
COc1ccc2[nH]c([S+]([O-])Cc3ncc(C)c(OC)c3C)nc2c1 (centres unmarked) [Omeprazole] | 46.24% ±0.04 | –
Cc1nc2n(c(=O)c1CCN1CCC(c3noc4cc(F)ccc34)CC1)CCCC2O (centres unmarked) [Paliperidone] | 101.95% ± 0.03 | –
CCC(=O)NS(=O)(=O)c1ccc(-c2c(-c3ccccc3)noc2C)cc1 [Parecoxib] | 72.34% ± 0.11 | –
C=C[C@H]1C[N@@]2CC[C@H]1C[C@@H]2[C@@H](O)c1ccnc2ccc(OC)cc12 [Quinidine] | 60.50% ± 0.14 | –
CN(CCOc1ccc(CC2SC(=O)NC2=O)cc1)c1ccccn1 (centres unmarked) [Rosiglitazone maleate] | 64.26% ± 0.004 | –
N#C[C@@H]1C[C@@H]2C[C@@H]2N1C(=O)[C@@H](N)C12CC3CC(CC(O)(C3)C1)C2 [Saxagliptin hydrochloride] | 114.45% ± 0.02 | –
CN[C@H]1CC[C@@H](c2ccc(Cl)c(Cl)c2)c2ccccc21 [Sertraline] | 29.92% ± 0.05 | –
O=c1n(CCCN2CCN(c3cccc(Cl)c3)CC2)nc2ccccn12 [Trazodone] | 49.14% ± 0.01 | –
CN1[C@@H]2CC[C@H]1C[C@@H](OC(=O)c1c[nH]c3ccccc13)C2 [Tropisetron] | 84.28% ± 0.07 | –
COc1ccc(C(CN(C)C)C2(O)CCCCC2)cc1 (centres unmarked) [Venlafaxine] | 54.22% ± 0.004 | –
Cc1ccc(Sc2ccccc2N2CCNCC2)c(C)c1 [Vortioxetine] | 11.14% ±0.001 | inhibition of dabrafenib metabolism [1, 4]: > 70%
CC(=O)N1CCN(c2ccc(OCC3COC(Cn4ccnc4)(c4ccc(Cl)cc4Cl)O3)cc2)CC1 (centres unmarked) [ketoconazole] | – | increase of dabrafenib Cmax on ketoconazole coadministration [2]: 33%; increase of dabrafenib area under curve (AUC) on ketoconazole coadministration [2]: 71%
Troagliptin succinate | – | Relative activity (% of control) ([1]; 100 µM): 117.88% ± 0.02
